Results as given in US12527762B2 (priority 2021, dated 2026).
Values joined by “and” are separate entries in the source; they are usually repeats but may differ in a detail not shown here. Equal entries are not always repeated. Where two headings read alike, the source gives them in different places.

Legend:
[1] = system: MCF7/PR Paclitaxel resistant MCF7 cell line; assay: Luminescent cell viability assay (CellTiter glo), subtype-specific breast cancer cell lines; assay type: cell-based
[2] = Solubility of niclosamide in pH 7 buffer solution (HPLC); assay type: physicochemical
Procedure: A pH 7 solution prepared by mixing 0.1 N potassium phosphate and 0.1 N sodium hydroxide was used as the pH 7 buffer solution. […] After 1 hour of stirring, 5 ml of a supernatant was filtered with a 0.45 μm PVDF filter, and then the amount of dissolved niclosamide was evaluated using the filtered solution as a sample.

[3] = assay type: in vitro ADME; settings: PAMPA
Procedure: The permeability of an artificial membrane (barrier membrane from PermeaPad, 25 mm) to niclosamide of the cocrystal of Example 17 of the present invention was evaluated using the side-bi-side cell system, and compared with that of the niclosamide single material. 5 ml of an FeSSIF solution (37° C.) at pH 6.5 added with 3% (w/w) Kolliphor ELP was taken and contained in a donor cell, and […] of each sample was weighed and administered to the donor cell. 5 ml of a PBS solution of pH 7.4 added with 20% (w/w) HP-β-CD was added to the acceptor cell, the test was started, and 200 μl of the solution was taken 5 times from the acceptor cell every predetermined time and used as the test solution. Then, the acceptor cell was filled with the PBS solution of pH 7.4 added with 1 ml of 20% (w/w) HP-p-CD, and the total volume was maintained at 5 ml.

[4] = system: ZR-75-1 hormone-positive breast cancer cell line; assay: Luminescent cell viability assay (CellTiter glo), subtype-specific breast cancer cell lines; assay type: cell-based; settings: for IC50: ZR-75-1, hormone-positive breast cancer cell line; for IC50 fold lower than Tamoxifen: ZR-75-1 cells
[5] = system: MDA-MB-453 HER2-positive breast cancer cell line; assay: as above; assay type: cell-based
[6] = system: HCC1419 HER2-positive breast cancer cell line; assay: as above; assay type: cell-based; settings: for IC50: HCC1419, HER2-positive breast cancer cell line; for IC50 fold lower than Herceptin: HCC1419 cells
[7] = system: HCC1937 triple negative breast cancer cell line; assay: as above; assay type: cell-based
[8] = system: MDA-MB-231 triple negative breast cancer cell line; assay: as above; assay type: cell-based; settings: for IC50: MDA-MB-231, triple negative breast cancer cell line; for IC50 fold lower than Cisplatin: MDA-MB-231 cells
SARS-CoV-2 = assay: microbe, parasite or virus in culture; assay type: cell-based
in vitro = settings: African green monkey
[9] = system: PANC-1 pancreatic cancer cell line; assay: Inhibition of cancer cell proliferation, CCK-8 assay; assay type: cell-based
[10] = system: MIAPACA-2 pancreatic cancer cell line; assay: as above; assay type: cell-based
[11] = system: A-549 non-small cell lung cancer cell line; assay: as above; assay type: cell-based
[12] = system: H-1299 non-small cell lung cancer cell line; assay: as above; assay type: cell-based
[13] = system: MCF-7 breast cancer cell line; assay: as above; assay type: cell-based
[14] = system: MDA-MB-231 breast cancer cell line; assay: as above; assay type: cell-based
[15] = system: Hep-3B liver cancer cell line; assay: as above; assay type: cell-based
[16] = system: Huh-7 liver cancer cell line; assay: as above; assay type: cell-based
[17] = system: Hep-3B liver cancer cell line; settings: value from literature, read-out: IC50 (positive control); cited from earlier work
[18] = system: Huh-7 liver cancer cell line; settings: value from literature, read-out: IC50 (positive control); cited from earlier work
[19] = Artificial membrane permeability of camostat, side-bi-side cell system (GIT-0-Lipid on PVDF membrane); assay type: in vitro ADME
Procedure: As an artificial membrane, 200 μl of a GIT-0-Lipid solution was used by dropping on the center of a 25 mm hydrophobic PVDF membrane. 5 ml of a 37° C. pH 5.0 FeSSIF solution was taken and contained in a donor cell, and 20 mg of the sample was weighed and administered to the donor cell. The test was started after adding 5 ml of an ethyl alcohol. pH 7.4 PBS buffer (1:9, v/v) solution to an acceptor cell, and 200 μl of the solution was taken five times from the acceptor cell every predetermined time and used as a test solution. Then, the acceptor cell was filled with 1 ml of the ethyl alcohol: pH 7.4 PBS buffer (1:9, v/v) solution to maintain a total volume of 5 ml.

[20] = system: MCF-7 breast cancer cell line; settings: value from literature, read-out: IC50 (positive control); cited from earlier work
[21] = system: MDA-MB-231 breast cancer cell line; settings: value from literature, read-out: IC50 (positive control); cited from earlier work
[22] = system: PANC-1 pancreatic cancer cell line; settings: value from literature, read-out: IC50 (positive control); cited from earlier work
[23] = system: MIAPACA-2 pancreatic cancer cell line; settings: value from literature, read-out: IC50 (positive control); cited from earlier work
[24] = SARS-CoV-2 in Vero cells, 24 hours after infection, read-out: IC50
[25] = Severe acute respiratory syndrome coronavirus 2, SARS-CoV-2 in Vero cells, 24 hours after infection, read-out: IC50

CC(=O)O[C@H]1C(=O)[C@@]2(C)[C@H]([C@H](OC(=O)c3ccccc3)[C@]3(O)C[C@H](OC(=O)[C@H](O)[C@@H](NC(=O)c4ccccc4)c4ccccc4)C(C)=C1C3(C)C)[C@]1(OC(C)=O)CO[C@@H]1C[C@@H]2O [Paclitaxel, reference compound]
IC50 ([1]; Homo sapiens): 13.7 µM

CN(C)C(=O)COC(=O)Cc1ccc(OC(=O)c2ccc(NC(=N)N)cc2)cc1.O=C(Nc1ccc([N+](=O)[O-])cc1Cl)c1cc(Cl)ccc1O [Example 17]
pH 7 solubility [2]: 55.2 μg/ml | Cumulative permeation amount of drug [3]: 2.03 μg/ml/cm^2/h | cumulative permeation amount of niclosamide, fold better than niclosamide single material [3]: 1.72 fold | IC50 [4]: 6.29 µM | IC50 fold lower than Tamoxifen [4]: 1.4 fold | IC50 [5]: 7.48 µM | IC50 [6]: 1.5 µM | IC50 fold lower than Herceptin [6]: 16 fold | IC50 [7]: 4.55 µM | IC50 [8]: 2.25 µM | IC50 fold lower than Cisplatin [8]: 11 fold | IC50 [1]: 5.82 µM | SI (selectivity index, CC50/IC50) (SARS-CoV-2; SARS-CoV-2 in Vero cells): 313 | IC50 (SARS-CoV-2; [24]): 0.16 µM | CC50 (Vero cells): > 50 µM

CCC(CC)COC(=O)[C@H](C)N[P@](=O)(OC[C@H]1O[C@@](C#N)(c2ccc3c(N)ncnn23)[C@H](O)[C@@H]1O)Oc1ccccc1 [Remdesivir]
IC50 fold higher than the IC50 of the cocrystal (SARS-CoV-2; SARS-CoV-2 in Vero cells): about 21.75 fold | SI (selectivity index, CC50/IC50) (SARS-CoV-2; SARS-CoV-2 in Vero cells): 14.35 | IC50 (SARS-CoV-2; Severe acute respiratory syndrome coronavirus 2, Vero, 24 h): 3.48 µM | CC50 (in vitro): > 50 µM

CN(C)C(=O)COC(=O)Cc1ccc(OC(=O)c2ccc(NC(=N)N)cc2)cc1.O=C(Nc1ccc([N+](=O)[O-])cc1Cl)c1cc(Cl)ccc1O [Example 1]
IC50 ([9]; PANC-1, 48 hours drug treatment): 0.0993 µM | IC50 fold lower than gemcitabine ([9]; PANC-1 cell line): 432 fold | IC50 fold lower than gemcitabine ([10]; MIAPACA-2 cell line): 127 fold | IC50 ([10]; MiaPaCa-2, 48 hours drug treatment): 0.729 µM | IC50 ([11]; A-549, 48 hours drug treatment): 0.976 µM | IC50 fold lower than gefitinib ([11]; A-549 cells): 13 fold | IC50 ([12]; H-1299, 48 hours drug treatment): 0.381 µM | IC50 fold lower than gefitinib ([12]; H-1299 cells): 45 fold | IC50 ([13]; MCF-7, 48 hours drug treatment): 0.428 µM | IC50 fold lower than docetaxel ([13]; MCF-7 cells): 1.7 fold | IC50 ([14]; MDA-MB-231, 48 hours drug treatment): 0.126 µM | IC50 fold lower than docetaxel ([14]; MDA-MB-231 cells): 5 fold | IC50 fold lower than Sorafenib ([15]; Hep-3B cells): 297 fold | IC50 ([15]; Hep-3B, 48 hours drug treatment): 0.0413 µM | IC50 ([16]; Huh-7, 48 hours drug treatment): 0.134 µM | IC50 fold lower than Sorafenib ([16]; Huh-7 cells): 44 fold | IC50 [4]: 5.37 µM | IC50 fold lower than Tamoxifen [4]: 1.7 fold | IC50 [5]: 7.46 µM | IC50 [6]: 1.27 µM | IC50 fold lower than Herceptin [6]: 19 fold | IC50 [7]: 4.98 µM | IC50 [8]: 1.75 µM | IC50 fold lower than Cisplatin [8]: 14 fold | IC50 [1]: 5.69 µM | SI (selectivity index, CC50/IC50) (SARS-CoV-2; SARS-CoV-2 in Vero cells): 306 | IC50 (SARS-CoV-2; [24]): 0.16 µM | CC50 (Vero cells): > 50 µM

CNC(=O)c1cc(Oc2ccc(NC(=O)Nc3ccc(Cl)c(C(F)(F)F)c3)cc2)ccn1 [Sorafenib]
IC50 [17]: 12.3 µM | IC50 [18]: 6 µM

CCN(CC)CCCC(C)Nc1ccnc2cc(Cl)ccc12 (stereo not shown) [Chloroquine]
IC50 (SARS-CoV-2; [25]): 7.47 µM | CC50 (in vitro): > 150 µM

O=C(Nc1ccc([N+](=O)[O-])cc1Cl)c1cc(Cl)ccc1O [Niclosamide]
pH 7 solubility [2]: hardly detected | pH 7 solubility ([2]; 1 h): <0.3 μg/ml | Cumulative permeation amount of drug ([3]; 4 mg/ml): 1.18 μg/ml/cm^2/h

Cc1cccc(C)c1OCC(=O)N[C@@H](Cc1ccccc1)[C@@H](O)C[C@H](Cc1ccccc1)NC(=O)[C@H](C(C)C)N1CCCNC1=O [Lopinavir]
IC50 fold higher than the IC50 of the cocrystal (SARS-CoV-2; SARS-CoV-2 in Vero cells): about 64.38 fold | SI (selectivity index, CC50/IC50) (SARS-CoV-2; SARS-CoV-2 in Vero cells): 4.85 | IC50 (SARS-CoV-2; [25]): 10.3 µM | CC50 (in vitro): > 50 µM

CN(C)C(=O)COC(=O)Cc1ccc(OC(=O)c2ccc(NC(=N)N)cc2)cc1.O=C(Nc1ccc([N+](=O)[O-])cc1Cl)c1cc(Cl)ccc1O [Example 21]
Cumulative permeation amount J ([19]; camostat, donor pH 5.0 FeSSIF 37° C., acceptor ethyl alcohol:pH 7.4 PBS (1:9)): 876.29 μg/ml/cm^2/h and 876.26 μg/ml/cm^2/h | cumulative permeation amount of camostat, fold better than camostat single material ([19]; cocrystal vs camostat single material): 1.56 fold

CC(=O)O[C@@]12CO[C@@H]1C[C@H](O)[C@@]1(C)C(=O)[C@H](O)C3=C(C)[C@@H](OC(=O)[C@H](O)[C@@H](NC(=O)OC(C)(C)C)c4ccccc4)C[C@@](O)([C@@H](OC(=O)c4ccccc4)[C@H]21)C3(C)C [Docetaxel, reference compound]
IC50 ([4]; Homo sapiens): 24.2 µM | IC50 ([5]; Homo sapiens): ≥ 25 µM | IC50 ([6]; Homo sapiens): ≥ 25 µM | IC50 ([7]; Homo sapiens): ≥ 25 µM | IC50 ([8]; Homo sapiens): ≥ 25 µM | IC50 ([1]; Homo sapiens): 11.4 µM | IC50 [20]: 0.763 µM | IC50 [21]: 0.635 µM

Nc1ccn([C@@H]2O[C@H](CO)[C@@H](O)C2(F)F)c(=O)n1 [Gemcitabine]
IC50 [22]: 42.9 µM | IC50 [23]: 92.7 µM

N.N.[Cl][Pt][Cl] [Cisplatin, reference compound]
IC50 [7]: 12.3 µM | IC50 [8]: ≥ 25 µM
